Experimental data taken from PMC4207450, “Aurones: A Promising Heterocyclic Scaffold for the Development of Potent Antileishmanial Agents” (International Journal of Medicinal Chemistry, 2012).
Read-outs that look alike come from different tables or passages of the source.

Experiments:
[1] = system: L. infantum intracellular amastigotes; experiment: Growth inhibition of luciferase-expressing L. infantum intracellular amastigotes in THP1-differentiated macrophages; format: cell-based, Leishmania infantum; conditions: for IC50: Leishmania infantum, Macrophage, 72 h incubation, luciferase activity, infected THP1-differentiated macrophages
Procedure: A cloned line of L. infantum (MOM/MA671 TMAP263) promastigotes, stably expressing the luciferase gene (LUC), was grown in RPMI 1640 medium (Bio Whitaker, Belgium) supplemented with 10% heat-inactivated fetal bovine serum (FBS) (Bio Whitaker, Belgium), 2 mML-glutamine (Bio Whitaker, Belgium), 20 mM Hepes (Bio Whitaker, Belgium), 100 U/mL penicillin, and 100 μg/mL streptomycin (Bio Whitaker, Belgium). Selection of LUC positive parasites was done by adding geneticin-sulphate (Sigma-Aldrich, USA) to the culture media at a final concentration of 5 μg/mL. Parasites were maintained in culture, at 26°C by subpassage ([…]) at every 5 days.
L. infantum axenic amastigotes, stably expressing the LUC gene were derived from promastigotes by culturing them in MAA (Medium for Axenic Amastigotes) culture medium. MAA consisted of a modified medium 199 with Hanks balanced salt solution (Gibco-Invitrogen, Spain) supplemented with 0.5% soya broth trypto-casein (Bio-Rad, UK), 15 mM D-glucose (Panreac, Spain), 4 mM NaHCO3 (Sigma-Aldrich, USA). The pH was adjusted to 5.8, and the media was 0.2 μm sterilized by filtration and further supplemented with 0.023 mM bovine hemin (Fluka, USA), 5 mM L-glutamine, and 25% of heat inactivated FBS. Amastigotes were maintained in culture, at 37°C in an atmosphere containing 5% CO2 by subpassage (10^5 parasites/mL), at every 5 days.
THP1-differentiated macrophages were infected for a period of 4 h with stationary phase LUC expressing, L. infantum axenic amastigotes, at a 5 : 1 parasite to cell ratio. After the infection period, cells were washed with culture media to remove noninternalized parasites. Serial dilutions of the aurones, ranging from 50 to 0.78 μM in culture media, were added to the wells, in quadruplicate, and incubated for 72 h at 37°C, 5% CO2. After the incubation period, the luciferase activity of intracellular amastigotes was determined as described before. The percentage of growth inhibition was calculated as described above.

[2] = system: THP1-differentiated macrophages; experiment: Toxicity of aurones on THP1-differentiated macrophages (MTT assay); format: cell-based, human; conditions: for IC50: Homo sapiens, Macrophage, 72 h incubation, MTT assay, cytotoxicity; for toxicity to mammalian (THP1) cells, in words: THP1-differentiated macrophages
Procedure: The human leukaemia monocyte THP1 cell line was cultured as a monolayer at 37°C in a humidified atmosphere containing 5% CO2. Cells were grown in RPMI 1640 medium, supplemented with 10% heat-inactivated FBS, 2 mM L-glutamine, 100 U/mL penicillin, and 100 μg/mL streptomycin, and were maintained in culture, by subpassage every 3 days.
For macrophage differentiation, human leukaemia monocyte cell line (THP-1 cells) cells were incubated in the presence of 20 ng/ml phorbol 12-myristate 13-acetate (PMA, Sigma-Aldrich) for 18 h at 37°C, 5% CO2, and left another 24 h with fresh medium containing no PMA to induce maturation. Serial dilutions of each aurone, ranging from 100 to 1.56 μM in culture media, were added to the wells, in quadruplicate, and incubated for 72 h at 37°C, 5% CO2. Cell viability was assessed by the MTT assay, as described before.
The IC50 value, that is, the concentration of the aurone necessary to decrease cell viability to 50% of the untreated control, was determined by linear regression analysis.

[3] = ratio of IC50 on THP1-differentiated macrophages to IC50 on intracellular parasite

| SMILES | Selectivity index (SI) [1] | IC50 [1] [nM] | IC50 [2] [µM] | Selectivity index (SI) [1, 3] | toxicity to mammalian (THP1) cells, in words [2] | melting point [°C] |
| --- | --- | --- | --- | --- | --- | --- |
| C[C@@H]1[C@H](O)[C@@H](C)/C=C/C=C/C=C/C=C/C=C/C=C/C=C/[C@H](O[C@@H]2O[C@H](C)[C@@H](O)[C@H](N)[C@@H]2O)C[C@@H]2O[C@](O)(C[C@@H](O)C[C@@H](O)[C@H](O)CC[C@@H](O)C[C@@H](O)CC(=O)O[C@H]1C)C[C@H](O)[C@H]2C(=O)O [Amphotericin B, reference compound] | 20.6 | 1200 ± 100 | 23.8 ± 2.3 | – | – | – |
| COc1ccc(/C=C2\Oc3ccccc3C2=O)cc1 [Compound 4a] | – | – | 16.5 ± 3.1 | – | – | – |
| Cc1ccc(/C=C2\Oc3ccccc3C2=O)cc1 [Compound 4b] | – | – | 8.5 ± 0.8 | – | – | – |
| O=C1/C(=C/c2ccc(Cl)cc2)Oc2ccccc21 [Compound 4c] | – | – | 14.5 ± 2.1 | – | – | – |
| COc1ccccc1/C=C1\Oc2ccccc2C1=O [Compound 4d] | – | – | 17.5 ± 3.1 | – | – | – |
| COc1cccc(/C=C2\Oc3ccccc3C2=O)c1 [Compound 4e] | – | 4700 ± 500 | 54.2 ± 7.3 | 11.5 | did not show significant toxicity | – |
| COc1ccc(/C=C2\Oc3ccccc3C2=O)cc1OC [Compound 4f] | – | – | 20.5 ± 1.2 | – | – | – |
| COc1ccc(/C=C2\Oc3cc(OC)cc(OC)c3C2=O)cc1 [Compound 4h] | – | – | 19.6 ± 2.5 | – | – | – |
| COc1cc(OC)c2c(c1)O/C(=C\c1ccccc1OC)C2=O [Compound 4i, 2′,4,6-trimethoxyaurone] | – | 1300 ± 100 | 75.4 ± 4.7 | 57.5 | – | – |
| COc1cc(OC)c2c(c1)O/C(=C\c1ccccc1C)C2=O [Compound 4j, 4,6-Dimethoxy-2′-methylaurone] | – | 1600 ± 200 | 68.1 ± 2.1 | 43.4 | – | 180 to 183 |
| COc1cc(OC)c2c(c1)O/C(=C\c1ccccc1Cl)C2=O [Compound 4k, 4,6-Dimethoxy-2′-chloro-aurone] | – | 12200 ± 1400 | > 100 | >8.2 | not toxic to mammalian cells | 191 to 193 |
| COc1cc(OC)c2c(c1)O/C(=C\c1ccccc1)C2=O [Compound 4l, 4,6-Dimethoxyaurone] | – | 2100 ± 900 | 57.5 ± 3.4 | 26.9 | – | 139 to 142 |
